These results are taken from US20050276767A1, “Composition containing an oily phase and a naphthopyran dye, cosmetic treatment processes” (L'OREAL, priority 2002, published 2005).

What all share (assay type): physicochemical
Data set [1] can be described thus: ΔE before/after UVA irradiation of dyes at 1% in a white lipstick base (Example 5). To be noted: 1% by weight dye in white lipstick base; UVA 2 mW/cm^2 for two minutes. As to the method:
The ΔE (before and after UV irradiation for 2 minutes) of various photochromic dyes according to the invention was determined, at 1% by weight in a white lipstick base comprising:
A composition comprising 1% of dye according to the invention and 99% of the above base is thus prepared.
(§1) The L, a and b measurements were performed on a Leneta brand contrast card of reference Form 1A Penopac, for a composition spread to a thickness of 50 microns.
(§2) The reflection measurements were performed using a Minolta 3700D spectrocolorimeter.
(§3) The initial trichromatic coordinates of the composition before irradiation (L0, a0 and b0) were thus determined.
The compositions were then subjected to a UV irradiation (flux of 2 mW/cm^2 of a UVA radiation) for two minutes and then, immediately after stopping the irradiation, the trichromatic coordinates after irradiation (L, a and b) were determined. Less than 5 seconds elapsed between the stopping of the irradiation and the determination of the new coordinates.
(§4) The ΔE was then calculated in the following manner: ΔE=[(L−L0)^2+(a−a0)^2+(b−b0)^2]^1/2

The nature of data set [2]: ΔE of oil + dye mixtures after UVA irradiation (Example 7). The note with it: UVA 2 mW/cm^2 for 2 minutes. On the set-up: key: ΔE = [(Lm′−Lm)^2+(am′−am)^2+(bm′−bm)^2]^1/2, before vs after UVA. As to the method: The mixtures prepared in Example 6 were irradiated with UV (flux of 2 mW/cm^2 of UVA) for 2 minutes.
The trichromatic coordinates of the mixture after irradiation (Lm′, am′ and bm′) were again determined, as in Example 2, and the ΔE was calculated in the following manner: ΔE=[(Lm′−Lm)^2+(am′−am)^2+(bm′−bm)^2]^1/2.
Less than 5 seconds elapsed between stopping the irradiation and determining the new coordinates.

Data set [3] can be described thus: ΔE before/after UVA irradiation of wax-structured compositions, 50 micron film on contrast card, reflection (Examples 3 and 8). Here is the method: as §1, §2
The initial trichromatic coordinates of the composition before irradiation (L0, a0 and b0) were thus determined. The composition was then subjected to a UV irradiation (flux of 2 mW/cm^2 of a UVA radiation) for two minutes and then, immediately after stopping the irradiation, the trichromatic coordinates after irradiation (L, a and b) were determined. Less than 5 seconds elapsed between the stopping of the irradiation and the determination of the new coordinates.
The ΔE was then calculated in the following manner: ΔE=[(L−L0)^2+(a−a0)^2+(b−b0) ^2]^1/2
A composition was prepared, comprising: • 0.05% by weight of 3-phenyl-3-(4-piperidinophenyl)-6-morpholino-3H-naphtho[2,1-b]pyran (Reversacol Ruby from James Robinson), • 15% by weight of polyethylene wax (apolar wax), • qs 100% of phenylsilicone oil (DC556 from Dow Corning).
as §3
The composition was then subjected to a UV irradiation (flux of 2 mW/cm^2 of a UVA radiation) for two minutes and then, immediately after stopping the irradiation, the trichromatic coordinates after irradiation (L, a and b) were determined. Less than 5 seconds elapsed between the stopping of the irradiation and the determination of the new coordinates.
as §4
15% by weight of polyethylene wax (apolar wax) was added to the mixtures prepared in Example 6 (oils+0.05% by weight of Reversacol Ruby dye), and the trichromatic coordinates L, a and b were then measured, before and after irradiation with UV for 2 minutes (flux of 2 mW/cm^2 of UVA) on thin films of composition, 50 microns thick, poured onto a contrast card.
To do this, a Minolta 3700D spectrocolorimeter in reflection mode was used; less than 5 seconds elapsed between stopping the irradiation and determining the new coordinates.

Data set [4] is described as follows: Solubility of the dye in various silicone oils, observed with the naked eye (Example 1). Here is the method:
The term “soluble” means that the dyes form a uniform mixture, free of particles that are apparent to the naked eye, at 25° C. and 1 atmosphere, in a proportion of 0.05% by weight in the oily phase.
The solubility of a dye according to the invention in various silicone oils was studied. Several mixtures comprising 0.05% by weight of 3-phenyl-3-(4-piperidinophenyl)-6-morpholino-3H-naphtho[2,1-b]pyran (Reversacol Ruby from James Robinson) in various oils were thus prepared, and the mixture was then heated to 60° C. with stirring.

Data set [5] is described as follows: Solvatochromism: ΔE′ of oil + dye mixture versus oil alone, transmission, no UV (Example 6). The note with it: without UV. Details: key: ΔE′ = √(ΔL²+Δa²+Δb²), oil alone vs oil+dye, transmission. As to the method: The trichromatic coordinates (Lh, ah and bh) of the oil alone and of the oil+dye mixture (Lm, am and bm) were thus determined, and the ΔE′ was calculated in the following manner: ΔE′=[Lh−Lm)^2+(ah−am)^2+(bh−bm)^2]^1/2.
To do this, a Minolta 3700D spectrocolorimeter in transmission mode was used, with a plastic cuvette (“cuvette walls+oil+optional dye” optical path length=1 cm).

Data set [6] in a line: Visual colour change of the dye solution in phenylsilicone oil on UV (sunlight) irradiation (Example 2). To be noted: 0.05% by weight in phenylsilicone oil DC556. Here is the method:
A solution comprising 0.05% by weight of 3-phenyl-3-(4-piperidinophenyl)-6-morpholino-3H-naphtho[2,1-b]pyran (Reversacol Ruby from James Robinson) in a phenylsilicone oil (DC556 from Dow Corning) was prepared. The mixture was then irradiated with UV (sunlight) for 2 minutes.

[7] abbreviates: 0.05% dye in Capric/caprylic acid triglyceride.
Where [8] appears, read: 0.05% dye in Diisostearyl malate.
Where [9] appears, read: 0.05% dye in Hydrogenated polyisobutene.
[10] abbreviates: 0.05% dye in Isononyl isononanoate.
Setting [11] is: 0.05% dye in Tridecyl trimellitate.

Turning to `C1=CC(c2ccccc2)(c2ccc(N3CCOCC3)cc2)Oc2cc(N3CCOCC3)c3ccccc3c21` (stereo not drawn) [3-phenyl-3-(4-morpholinophenyl)-6-morpholino-3H-naphtho[2,1-b]pyran], the ΔE in data set [1] is listed as 53.
Regarding `C1=CC(c2ccccc2)(c2ccc(N3CCCCC3)cc2)Oc2cc(N3CCOCC3)c3ccccc3c21` (stereo not drawn) [Reversacol Ruby, 3-phenyl-3-(4-piperidinophenyl)-6-morpholino-3H-naphtho[2,1-b]pyran], the ΔE in data set [2] (setting [7]) is on record as 23.70; in data set [2] (0.05% dye in Castor oil), 19.02; in data set [2] (setting [8]) it was 38.79; in data set [2] (setting [9]), 17.69; in data set [2] (0.05% dye in Isododecane), 19.17; in data set [2] (setting [10]), 25.47. Further, the ΔE in data set [2] (0.05% dye in Octyldodecanol) was found to be 20.88; in data set [2] (setting [11]), 13.74; in data set [2] (0.05% dye in Triisononanoin) it was 21.62; in data set [3] (0.05% dye, 15% polyethylene wax, qs phenylsilicone oil DC556, UVA 2 mW/cm^2 for two minutes) it was 37.38; in data set [3] (15% wax + 0.05% dye in Castor oil, UVA 2 mW/cm^2 for 2 minutes, 50 micron film), 26.75; in data set [3] (15% wax + 0.05% dye in Diisostearyl malate, UVA 2 mW/cm^2 for 2 minutes, 50 micron film) it was 43.12. The ΔE in data set [3] (15% wax + 0.05% dye in Hydrogenated polyisobutene, UVA 2 mW/cm^2 for 2 minutes, 50 micron film) stood at 18.36; in data set [3] (15% wax + 0.05% dye in Isododecane, UVA 2 mW/cm^2 for 2 minutes, 50 micron film) it was 27.21; in data set [3] (15% wax + 0.05% dye in Isononyl isononanoate, UVA 2 mW/cm^2 for 2 minutes, 50 micron film) it was 27.74; in data set [3] (15% wax + 0.05% dye in Octyldodecanol, UVA 2 mW/cm^2 for 2 minutes, 50 micron film) it was 31.09; in data set [3] (15% wax + 0.05% dye in Tridecyl trimellitate, UVA 2 mW/cm^2 for 2 minutes, 50 micron film), 31.98; in data set [3] (15% wax + 0.05% dye in Triisononanoin, UVA 2 mW/cm^2 for 2 minutes, 50 micron film) it was 33.70. Besides, the ΔE in data set [1] is given as 49. Further, the “Dissolution at elevated temperature (60° C.)” value in data set [4] (0.05% by weight dye in Phenyltrimethylsiloxytrisiloxane (20 cSt) DC556 from Dow Corning) and in data set [4] (0.05% by weight dye in Polyphenyltrimethylsiloxydimethylsiloxane (1000 cSt) Belsil PDM 1000 from Wacker) was “Total dissolution” throughout. Besides, the “Coloration of the solution of the dye (solvatochromic effect)” value in data set [4] (in the phenylsilicones, not for the other oils) is recorded as “pink coloration”. The “Dissolution in the other silicone-based media after cooling to room temperature” value in data set [4] (non-phenylated silicone media, room temperature) is listed as “virtually undissolved”. The “Dissolution at elevated temperature in non-phenylated oils” value in data set [4] (non-phenylated silicone oils, elevated temperature) is “dissolves poorly”. Besides, the “Dissolution at elevated temperature in the phenylated oils” value in data set [4] (phenylated silicone oils, irrespective of viscosity, elevated temperature) is recorded as “complete”. Also, the “Dissolution in phenylsilicones after cooling to room temperature” value in data set [4] (phenylsilicones, room temperature) is reported as “virtually complete dissolution”. The “ΔE′ of the oil + dye mixture” value in data set [5] (setting [7]) turned out to be 12.4093; in data set [5] (0.05% dye in Castor oil), 33.6278; in data set [5] (setting [8]), 12.9041; in data set [5] (setting [9]), 6.6920; in data set [5] (0.05% dye in Isododecane) it was 4.2421; in data set [5] (setting [10]) it was 7.7386. Besides, the “ΔE′ of the oil + dye mixture” value turned out to be 37.6049 in data set [5] (0.05% dye in Octyldodecanol), 14.2178 in data set [5] (setting [11]) and 12.8122 in data set [5] (0.05% dye in Triisononanoin). The “Initial coloration of the mixture before irradiation” value in data set [6] is listed as “pink”. Besides, in data set [6] (UV (sunlight) for 2 minutes), the Coloration after irradiation result is recorded as “strong orange-red”.
In turn, `COc1ccc(C2(c3ccc(OC)cc3)C=Cc3c(cc(N4CCOCC4)c4ccccc34)O2)cc1` [3,3-di(4-methoxyphenyl)-6-morpholino-3H-naphtho-[2,1-b]pyran] came in with a ΔE in data set [1] of 51.
